Experimental data taken from patent publication US20080108600A1, “Polycyclic Pyridines as Potassium Ion Channel Modulators” (Icagen, Inc., priority 2004, published 2008).

Target: hSK2 (Homo sapiens, UniProt Q9H2S1)
Assay: 86Rb+ efflux assay for compound activity towards hSK channels
Type: cell-based
Conditions: 86Rb+ efflux stimulated with calcium ionophore; drug 0.01 to 30 μM; read-out: hSK2 Inhibitory Activity
Method: 24.1 Assay for Compound Activity Towards hSK Channels
Cells expressing small conductance, calcium activated potassium channels, such as SK-like channels were loaded with ^86Rb^+ by culture in media containing ^86RbCl. Following loading, the culture media was removed and the cells were washed in EBSS to remove residual traces of ^86Rb^+. Cells were preincubated with the drug (0.01 to 30 μM in EBSS) and then ^86Rb^+ efflux was stimulated by exposing cells to EBSS solution supplemented with a calcium ionophore, such as ionomycin, in the continued presence of the drug. After a suitable efflux period, the EBSS/ionophore solution was removed from the cells and the ^86Rb^+ content was determined by Cherenkov counting (Wallac Trilux). Cells were then lysed with a SDS solution and the ^86Rb^+ content of the lysate was determined. Percent ^86Rb^+ efflux was calculated according to the following equation:
(^86Rb^+ content in EBSS/(86Rb^+ content in EBSS+^86Rb^+ content of the lysate))×100

| IC50 [nM] | Compound |
| --- | --- |
| < 100 | COc1ccc(-c2ccccn2)nc1Nc1ccc(N2CCCCC2)cn1 [(5-Methoxy-[2,2′]bipyridinyl-6-yl)-(3,4,5,6-tetrahydro-2H-[1,3′]bipyridinyl-6′-yl)-amine] |
| < 100 | COc1ccc(-c2cnccn2)nc1Nc1ccc(N2CCN(C)CC2)cn1 [(3-Methoxy-6-pyrazin-2-yl-pyridin-2-yl)-[5-(4-methyl-piperazin-1-yl)-pyridin-2-yl]-amine] |
| < 100 | COc1ccc(-c2ccccn2)nc1Nc1ccc(C(C)C)cn1 [(5-Isopropyl-pyridin-2-yl)-(5-methoxy-[2,2′]bipyridinyl-6-yl)-amine] |
| < 100 | COc1ccccc1-c1ccc(Nc2cccc(-n3cc(C)cn3)n2)nc1 [[5-(2-Methoxy-phenyl)-pyridin-2-yl]-[6-(4-methyl-pyrazol-1-yl)-pyridin-2-yl]-amine] |
| < 100 | c1cc(Nc2ccc(-c3ccco3)cn2)nc(-c2cnccn2)c1 [(5-Furan-2-yl-pyridin-2-yl)-(6-pyrazin-2-yl-pyridin-2-yl)-amine] |
| < 100 | COc1ccc(Nc2cccc(-n3cc(C)cn3)n2)nc1 [(5-Methoxy-pyridin-2-yl)-[6-(4-methyl-pyrazol-1-yl)-pyridin-2-yl]-amine] |
| < 100 | COc1ccc(-c2ncc(Cl)s2)nc1Nc1ccc(N2CCOCC2)cn1 [[6-(5-Chloro-thiazol-2-yl)-3-methoxy-pyridin-2-yl]-(5-morpholin-4-yl-pyridin-2-yl)-amine] |
| < 100 | Clc1cnc(-c2cccc(Nc3ccc(N4CCOCC4)cn3)n2)s1 [[6-(5-Chloro-thiazol-2-yl)-pyridin-2-yl]-(5-morpholin-4-yl-pyridin-2-yl)-amine] |
| < 100 | Cc1ccc(-c2ccc(Nc3cccc(-c4nccs4)n3)nc2)o1 [[5-(5-Methyl-furan-2-yl)-pyridin-2-yl]-(6-thiazol-2-yl-pyridin-2-yl)-amine] |
| < 100 | CC(C)c1cnc(-c2cccc(Nc3ccccn3)n2)s1 [[6-(5-Isopropyl-thiazol-2-yl)-pyridin-2-yl]-pyridin-2-yl-amine] |
| < 100 | COc1ccc(-c2cnccn2)nc1Nc1ccc(N2CCCCC2)cn1 [(3-Methoxy-6-pyrazin-2-yl-pyridin-2-yl)-(3,4,5,6-tetrahydro-2H-[1,3′]bipyridinyl-6′-yl)-amine] |
| < 100 | c1ccc(-c2cc(Nc3cccc(-c4nccs4)n3)[nH]n2)cc1 [(5-Phenyl-2H-pyrazol-3-yl)-(6-thiazol-2-yl-pyridin-2-yl)-amine] |
| 100 to 500 | COc1ccc(-c2nccs2)nc1Nc1ccc(N2CCNC(C)C2)cn1 (stereo not drawn) [(3-Methoxy-6-thiazol-2-yl-pyridin-2-yl)-[5-(3-methyl-piperazin-1-yl)-pyridin-2-yl]-amine] |
| < 100 | CCOC(=O)CCc1ccc(Nc2cccc(-c3nccs3)n2)nc1 [3-[6-(6-Thiazol-2-yl-pyridin-2-ylamino)-pyridin-3-yl]-propionic acid ethyl ester] |
| < 100 | COCCN(C)c1ccc(Nc2cccc(-c3ncc(Cl)s3)n2)nc1 [N^2-[6-(5-Chloro-thiazol-2-yl)-pyridin-2-yl]-N^5-(2-methoxy-ethyl)-N^5-methyl-pyridine-2,5-diamine] |
| < 100 | COc1ccc(-c2nccs2)nc1Nc1ccc(-c2ccccn2)cn1 [[2,3′]Bipyridinyl-6′-yl-(3-methoxy-6-thiazol-2-yl-pyridin-2-yl)-amine] |
| 100 to 500 | Cc1ccc(-c2cccc(-c3nc4ccc(Cl)cc4[nH]3)n2)nc1 [6′-(6-Chloro-1H-benzoimidazol-2-yl)-5-methyl-[2,2′]bipyridinyl] |
| < 100 | COc1ccc(-c2ccccn2)nc1Nc1ccc(N2CCN(C)CC2)cn1 [(5-Methoxy-[2,2′]bipyridinyl-6-yl)-[5-(4-methyl-piperazin-1-yl)-pyridin-2-yl]-amine] |

| IC50 [nM] | Compound |
| --- | --- |
| < 100 | COc1ccc(-c2ncc(Cl)s2)nc1Nc1ccc(N2CCC(OC)CC2)cn1 [[6-(5-Chloro-thiazol-2-yl)-3-methoxy-pyridin-2-yl]-(4-methoxy-3,4,5,6-tetrahydro-2H-[1,3′]bipyridinyl-6′-yl)-amine] |
| < 100 | COc1ccc(-c2ncc(Cl)s2)nc1Nc1ccc(N2CCCC2=O)cn1 [1-{6-[6-(5-Chloro-thiazol-2-yl)-3-methoxy-pyridin-2-ylamino]-pyridin-3-yl}-pyrrolidin-2-one] |
| < 100 | O=C1CCCCN1c1ccc(Nc2cccc(-n3cccn3)n2)nc1 [6′-(6-Pyrazol-1-yl-pyridin-2-ylamino)-3,4,5,6-tetrahydro-[1,3′]bipyridinyl-2-one] |
| < 100 | Cc1cnn(-c2cccc(Nc3ccc(C(C)C)cn3)n2)c1 [(5-Isopropyl-pyridin-2-yl)-[6-(4-methyl-pyrazol-1-yl)-pyridin-2-yl]-amine] |
| 100 to 500 | COc1ccc(-c2nccs2)nc1Nc1ccc(N2CCCN(C)CC2)cn1 [(3-Methoxy-6-thiazol-2-yl-pyridin-2-yl)-[5-(4-methyl-[1,4]diazepan-1-yl)-pyridin-2-yl]-amine] |
| 100 to 500 | CCc1cnc(-c2cccc(Nc3ccc(N4CCCCC4=O)cn3)n2)s1 [6′-[6-(5-Ethyl-thiazol-2-yl)-pyridin-2-ylamino]-3,4,5,6-tetrahydro-[1,3′]bipyridinyl-2-one] |
| 100 to 500 | COc1ccc(-c2nccs2)nc1Nc1ccc(N(C)C2CCN(C)C2)cn1 (stereo not drawn) [N^2-(3-Methoxy-6-thiazol-2-yl-pyridin-2-yl)-N^5-methyl-N^5-(1-methyl-pyrrolidin-3-yl)-pyridine-2,5-diamine] |
| < 100 | Brc1ccc(Nc2cccc(-c3nccs3)n2)nc1 [(5-Bromo-pyridin-2-yl)-(6-thiazol-2-yl-pyridin-2-yl)-amine] |
| < 100 | Clc1cnc(-c2cccc(Nc3ccccn3)n2)s1 [[6-(5-Chloro-thiazol-2-yl)-pyridin-2-yl]-pyridin-2-yl-amine] |
| < 100 | Cc1cnc(-c2cccc(Nc3ccccn3)n2)s1 [[6-(5-Methyl-thiazol-2-yl)-pyridin-2-yl]-pyridin-2-yl-amine] |
| 500 to 1000 | Fc1cccc(Nc2cccc(-c3nccs3)n2)n1 [(6-Fluoro-pyridin-2-yl)-(6-thiazol-2-yl-pyridin-2-yl)-amine] |
| < 100 | COc1ccc(-c2nccs2)nc1Nc1ccccn1 [(3-Methoxy-6-thiazol-2-yl-pyridin-2-yl)-pyridin-2-yl-amine] |
| 100 to 500 | COC(=O)c1ccc(Nc2cccc(-n3cccn3)n2)nc1 [6-(6-Pyrazol-1-yl-pyridin-2-ylamino)-nicotinic acid methyl ester] |
| < 100 | CCc1ccc(Nc2cccc(-c3nccs3)n2)nc1 [(5-Ethyl-pyridin-2-yl)-(6-thiazol-2-yl-pyridin-2-yl)-amine] |
| < 100 | C=C(C)c1ccc(Nc2cccc(-n3cc(C)cn3)n2)nc1 [(5-Isopropenyl-pyridin-2-yl)-[6-(4-methyl-pyrazol-1-yl)-pyridin-2-yl]-amine] |
| 100 to 500 | CC(C)(C)c1ccc(Nc2cccc(-c3nccs3)n2)nc1 [(5-tert-Butyl-pyridin-2-yl)-(6-thiazol-2-yl-pyridin-2-yl)-amine] |
| 100 to 500 | Cc1cnn(-c2cccc(Nc3ccc(N4CCC(C)CC4)cn3)n2)c1 [[6-(4-Methyl-pyrazol-1-yl)-pyridin-2-yl]-(4-methyl-3,4,5,6-tetrahydro-2H-[1,3′]bipyridinyl-6′-yl)-amine] |

| Compound | IC50 [nM] |
| --- | --- |
| COc1ccc(-c2nccs2)nc1Nc1ccc(NC2CN3CCC2CC3)cn1 (stereo not drawn) [N^5-(1-Aza-bicyclo[2.2.2]oct-3-yl)-N^2-(3-methoxy-6-thiazol-2-yl-pyridin-2-yl)-pyridine-2,5-diamine] | 100 to 500 |
